Assay results from ChEMBL document CHEMBL1201862, “PubChem BioAssay data set” (2004).
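48-hour exposure; five concentrations; linearly interpolated endpoints. GI50 = concentration required for 50% inhibition of growth.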 Active and inactive are the calls of the source. Rule as the data show it: active = GI50 up to about 1.1 µM and inactive = higher.

How the values were obtained:
Assay in all cases: NCI anticancer screen, dose series, 48 h
[1] = tested on: Hs-578T
[2] = tested on: UO-31
[3] = tested on: MOLT-4
[4] = tested on: K562
[5] = tested on: RXF 393
[6] = tested on: SW-620
[7] = tested on: M14
[8] = tested on: TK-10
[9] = tested on: HL-60
[10] = tested on: U-251
[11] = tested on: CAKI-1
[12] = tested on: SN12C
[13] = tested on: OVCAR-5
[14] = tested on: HT-29
[15] = tested on: CCRF-CEM
[16] = tested on: SNB-19
[17] = tested on: SR
[18] = tested on: UACC-62
[19] = tested on: Malme-3M
[20] = tested on: OVCAR-8

SMILES	GI50 [1]	GI50 [2]	GI50 [3]	GI50 [4]	GI50 [5]	GI50 [6]	GI50 [7]	GI50 [8]	GI50 [9]	GI50 [10]	GI50 [11]	GI50 [12]	GI50 [13]	GI50 [14]	GI50 [15]	GI50 [16]	GI50 [17]	GI50 [18]	GI50 [19]	GI50 [20]
Cc1cc(Cl)nc2nc(Cl)c(N)cc12	10.4 µM (inactive)	3.92 µM (inactive)	4.6 µM (inactive)	3.23 µM (inactive)	8.2 µM (inactive)	2.04 µM (inactive)	8.67 µM (inactive)	6.58 µM (inactive)	1.77 µM (inactive)	2.05 µM (inactive)	0.354 µM (active)	1.9 µM (inactive)	17 µM (inactive)	2.15 µM (inactive)	1.67 µM (inactive)	4.95 µM (inactive)	2.88 µM (inactive)	2.37 µM (inactive)	9.53 µM (inactive)	2.67 µM (inactive)
O=C(NCCC1([N+](=O)[O-])CCN(C(=O)c2ccccc2)CC1)c1ccccc1	> 100 µM (inactive)	55.2 µM (inactive)	> 100 µM (inactive)	> 100 µM (inactive)	67 µM (inactive)	> 100 µM (inactive)	> 100 µM (inactive)	> 100 µM (inactive)	> 100 µM (inactive)	> 10 µM (inactive)	42.3 µM (inactive)	> 100 µM (inactive)	> 100 µM (inactive)	45.6 µM (inactive)	> 100 µM (inactive)	> 100 µM (inactive)	> 100 µM (inactive)	57.4 µM (inactive)	56.5 µM (inactive)	> 100 µM (inactive)
C[C@H]1C/C=C/[C@H]2[C@@H]3O[C@]3(C)[C@@H](C)[C@H]3[C@H](Cc4ccccc4)NC(=O)[C@]32OC(=O)O/C=C/[C@@](C)(O)C1=O [CYTOCHALASIN E]	0.0171 µM (active)	0.0199 µM (active)	8.59 µM (inactive)	1.72 µM (inactive)	0.0111 µM (active)	21.8 µM (inactive)	0.0436 µM (active)	< 0.01 µM (active)	0.0838 µM (active)	0.0188 µM (active)	0.0132 µM (active)	3.16 µM (inactive)	11.3 µM (inactive)	0.0194 µM (active)	0.021 µM (active)	0.0604 µM (active)	0.065 µM (active)	0.1 µM (active)	0.0251 µM (active)	23.6 µM (inactive)
